According to US9309242B2, “Substituted pyrido[2,3-b]pyrazines as FGFR kinase inhibitors” (priority 2011, dated 2016):
Like-named read-outs stand apart in the source and are kept apart here.

How the values were obtained:
[1] = target: Ba/F3-FGFR4-transfected cells (Homo sapiens, UniProt P22455); assay: Ba/F3-FGFR4 cellular proliferation assay, Alamar Blue; type: cell-based
Method in brief: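 Compounds in DMSO were dispensed before 20000 Ba/F3-FGFR4-transfected cells per well were added in phenol red free RPMI-1640 with 10% FBS, 2 mM L-Glutamine. After 24 hours at 37° C and 5% CO2, Alamar Blue was added for 4 hours and fluorescence read (ex. 540 nm, em. 590 nm).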

[2] = test system: Ba/F3-KDR-transfected cells; assay: Ba/F3-KDR (plus IL3) cellular proliferation assay, counterscreen with 10 ng/ml murine IL3; type: cell-based; conditions: read-out: BAF3-KDR (PLUS IL3) pIC50 (converted)
Method in brief: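 Ba/F3-KDR cells (20000 per well) in phenol red-free RPMI-1640 with 10% FBS were exposed to compound for 24 hours at 37° C, 5% CO2. Alamar Blue (resazurin) was then added for 4 hours, and fluorescence was read at ex. 540 nm/em. 590 nm.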

[3] = target: T1, Ba/F3-FGFR1-transfected cells (Homo sapiens, UniProt P11362); assay: Ba/F3-FGFR1 (minus IL3) cellular proliferation assay, Alamar Blue; type: cell-based
T1 construct: BAF3-FGFR1 (MIN IL3) pIC50; other: minus IL3
Method in brief: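 Compound is dispensed first, then FGFR1-transfected Ba/F3 cells are added at 20000 per well in phenol red-free RPMI-1640 containing 10% FBS. After 24 h at 37 °C, Alamar Blue is added for 4 h and fluorescence is measured at 540/590 nm.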

KDR (h) = KDR (h) (Homo sapiens, UniProt P35968); assay: KDR (VEGFR2) (enzymatic assay), TR-FRET; type: biochemical; conditions: average values if tested multiple times, read-out: VEGFR 2 (KDR) pIC50 (converted)
Method in brief: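 Enzyme at 150 ng/ml was incubated 120 min at room temperature with 500 nM Btn-Flt3 peptide and 3 μM ATP in 50 mM HEPES pH 7.5, 6 mM MnCl2, 1 mM DTT, 0.1 mM Na3VO4, 0.01% Triton-X-100, 1% DMSO final. EDTA stop with Eu-anti-P-Tyr/SA-XL-665, 60 min; TR-FRET read in RFU.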

FGFR1 (h) = FGFR1 (h) (Homo sapiens, UniProt P11362); assay: FGFR1 (enzymatic assay), TR-FRET; type: biochemical; conditions: average values if tested multiple times, read-out: FGFR 1 pIC50 (converted)
[4] = test system: Ba/F3-FGFR3-transfected cells; assay: Ba/F3-FGFR3 (plus IL3) cellular proliferation assay, counterscreen with 10 ng/ml murine IL3; type: cell-based; conditions: read-out: BAF3-FGFR3 (PLUS IL3) pIC50 (converted)
Method in brief: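 Compound dilutions were dispensed first, then 20000 FGFR3-transfected Ba/F3 cells per well in serum-containing RPMI-1640 were added. After 24 h incubation at 37° C, Alamar Blue was applied for 4 h before relative fluorescence units were recorded. In the minus-IL3 format cells grow without cytokine; the other format contains 10 ng/ml murine IL3.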

FGFR2 (h) = FGFR2 (h) (Homo sapiens, UniProt P21802); assay: FGFR2 (enzymatic assay), TR-FRET; type: biochemical; conditions: enzymatic assay; average values if tested multiple times; read-out: FGFR 2 pIC50 (converted)
Method in brief: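 Compound (1% DMSO final) was combined with FGFR2 (h), 150 ng/ml, plus 0.4 μM ATP and 500 nM biotin-Flt3 in Mn2+-containing HEPES buffer at pH 7.5.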

[5] = plus IL3 (10 ng/ml murine IL3, counterscreen)

T1 sequence (P11362 whole entry, change not shown): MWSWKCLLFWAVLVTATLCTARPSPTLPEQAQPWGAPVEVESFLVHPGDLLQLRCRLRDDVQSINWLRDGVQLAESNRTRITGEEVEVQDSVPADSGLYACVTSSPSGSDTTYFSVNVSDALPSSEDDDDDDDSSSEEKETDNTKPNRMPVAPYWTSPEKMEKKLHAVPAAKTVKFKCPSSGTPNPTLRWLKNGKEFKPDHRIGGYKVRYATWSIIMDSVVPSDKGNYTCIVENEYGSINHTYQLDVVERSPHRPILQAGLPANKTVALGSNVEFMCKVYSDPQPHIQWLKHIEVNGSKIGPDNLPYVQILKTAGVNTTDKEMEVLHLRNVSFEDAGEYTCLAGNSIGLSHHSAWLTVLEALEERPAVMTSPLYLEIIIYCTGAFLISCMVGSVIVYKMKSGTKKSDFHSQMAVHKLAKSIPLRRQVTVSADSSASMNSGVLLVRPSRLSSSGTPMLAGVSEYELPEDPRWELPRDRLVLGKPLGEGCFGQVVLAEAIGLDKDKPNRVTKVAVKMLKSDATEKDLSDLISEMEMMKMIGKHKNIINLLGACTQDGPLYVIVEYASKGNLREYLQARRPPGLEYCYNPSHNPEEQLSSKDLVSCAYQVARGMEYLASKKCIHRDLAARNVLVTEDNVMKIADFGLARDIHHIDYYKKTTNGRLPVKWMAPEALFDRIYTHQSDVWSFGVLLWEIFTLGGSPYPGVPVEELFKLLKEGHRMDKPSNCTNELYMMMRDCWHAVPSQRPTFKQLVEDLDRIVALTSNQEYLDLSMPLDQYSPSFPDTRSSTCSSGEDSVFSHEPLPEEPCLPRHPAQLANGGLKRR
Ba/F3-FGFR4-transfected cells, sequence (P22455 whole entry, change not shown): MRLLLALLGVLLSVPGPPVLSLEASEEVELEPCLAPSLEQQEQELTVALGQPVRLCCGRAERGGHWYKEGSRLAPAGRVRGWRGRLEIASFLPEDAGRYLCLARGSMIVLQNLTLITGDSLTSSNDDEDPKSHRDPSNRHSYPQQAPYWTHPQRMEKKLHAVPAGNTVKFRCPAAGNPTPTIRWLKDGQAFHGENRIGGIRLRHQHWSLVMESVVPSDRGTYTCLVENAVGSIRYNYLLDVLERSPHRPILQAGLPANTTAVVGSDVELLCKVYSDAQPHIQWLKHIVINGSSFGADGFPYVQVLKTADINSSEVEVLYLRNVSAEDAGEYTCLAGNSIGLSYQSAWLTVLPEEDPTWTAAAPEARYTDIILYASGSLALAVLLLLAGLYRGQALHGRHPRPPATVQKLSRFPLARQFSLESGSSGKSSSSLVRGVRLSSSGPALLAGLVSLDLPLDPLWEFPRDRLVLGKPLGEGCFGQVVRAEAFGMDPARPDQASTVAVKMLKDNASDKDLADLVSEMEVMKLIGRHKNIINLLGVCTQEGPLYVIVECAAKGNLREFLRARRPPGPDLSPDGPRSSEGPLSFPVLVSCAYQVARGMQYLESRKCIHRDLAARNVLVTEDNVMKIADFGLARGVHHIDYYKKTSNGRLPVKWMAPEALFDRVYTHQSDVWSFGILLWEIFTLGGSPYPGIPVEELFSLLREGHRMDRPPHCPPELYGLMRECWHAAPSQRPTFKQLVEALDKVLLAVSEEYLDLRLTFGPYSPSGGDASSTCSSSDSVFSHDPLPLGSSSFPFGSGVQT
FGFR2 (h), sequence (P21802 22-821): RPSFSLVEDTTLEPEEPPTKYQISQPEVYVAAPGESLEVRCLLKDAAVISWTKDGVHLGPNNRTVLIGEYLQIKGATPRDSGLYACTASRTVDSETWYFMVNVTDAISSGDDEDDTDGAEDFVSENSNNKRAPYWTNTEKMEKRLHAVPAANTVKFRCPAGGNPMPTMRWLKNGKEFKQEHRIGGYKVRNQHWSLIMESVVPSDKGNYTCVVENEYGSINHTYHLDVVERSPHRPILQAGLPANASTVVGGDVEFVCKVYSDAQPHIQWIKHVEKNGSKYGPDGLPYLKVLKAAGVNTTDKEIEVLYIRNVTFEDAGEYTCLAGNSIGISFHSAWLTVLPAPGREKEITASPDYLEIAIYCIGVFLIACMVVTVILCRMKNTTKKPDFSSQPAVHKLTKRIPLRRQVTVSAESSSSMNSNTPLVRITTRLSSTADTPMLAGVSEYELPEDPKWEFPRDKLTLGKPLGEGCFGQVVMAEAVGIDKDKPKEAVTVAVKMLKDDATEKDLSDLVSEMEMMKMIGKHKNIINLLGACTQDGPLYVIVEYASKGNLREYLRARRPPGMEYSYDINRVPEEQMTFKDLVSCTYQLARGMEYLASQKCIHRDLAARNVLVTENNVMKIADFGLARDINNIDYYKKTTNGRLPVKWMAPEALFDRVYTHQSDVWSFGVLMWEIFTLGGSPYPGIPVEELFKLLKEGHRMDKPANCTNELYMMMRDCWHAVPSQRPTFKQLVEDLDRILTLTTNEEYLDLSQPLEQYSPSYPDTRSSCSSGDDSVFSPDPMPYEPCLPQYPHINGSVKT
FGFR1 (h), sequence (P11362 22-822): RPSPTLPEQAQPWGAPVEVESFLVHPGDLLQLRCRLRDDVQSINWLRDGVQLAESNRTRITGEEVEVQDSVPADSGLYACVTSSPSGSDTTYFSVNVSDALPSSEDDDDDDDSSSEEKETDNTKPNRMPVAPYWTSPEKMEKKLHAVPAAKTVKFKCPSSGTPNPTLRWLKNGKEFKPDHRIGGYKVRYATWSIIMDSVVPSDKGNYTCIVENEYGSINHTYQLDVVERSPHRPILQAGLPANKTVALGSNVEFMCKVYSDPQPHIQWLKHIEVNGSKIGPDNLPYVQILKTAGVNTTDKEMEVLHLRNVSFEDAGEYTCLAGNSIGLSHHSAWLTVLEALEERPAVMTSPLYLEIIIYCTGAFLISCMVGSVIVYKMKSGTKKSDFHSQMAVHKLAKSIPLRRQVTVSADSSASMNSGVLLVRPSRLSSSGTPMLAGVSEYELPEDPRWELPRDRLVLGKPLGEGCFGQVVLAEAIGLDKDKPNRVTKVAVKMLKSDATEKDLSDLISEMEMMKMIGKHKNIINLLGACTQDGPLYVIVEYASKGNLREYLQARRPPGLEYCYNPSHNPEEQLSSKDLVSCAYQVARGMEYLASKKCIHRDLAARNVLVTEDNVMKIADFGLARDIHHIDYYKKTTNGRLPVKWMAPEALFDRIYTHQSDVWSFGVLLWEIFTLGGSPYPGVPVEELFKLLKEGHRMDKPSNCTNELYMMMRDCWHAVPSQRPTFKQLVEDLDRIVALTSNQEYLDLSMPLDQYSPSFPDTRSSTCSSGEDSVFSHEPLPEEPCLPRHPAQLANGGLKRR
KDR (h), sequence (P35968 20-1356): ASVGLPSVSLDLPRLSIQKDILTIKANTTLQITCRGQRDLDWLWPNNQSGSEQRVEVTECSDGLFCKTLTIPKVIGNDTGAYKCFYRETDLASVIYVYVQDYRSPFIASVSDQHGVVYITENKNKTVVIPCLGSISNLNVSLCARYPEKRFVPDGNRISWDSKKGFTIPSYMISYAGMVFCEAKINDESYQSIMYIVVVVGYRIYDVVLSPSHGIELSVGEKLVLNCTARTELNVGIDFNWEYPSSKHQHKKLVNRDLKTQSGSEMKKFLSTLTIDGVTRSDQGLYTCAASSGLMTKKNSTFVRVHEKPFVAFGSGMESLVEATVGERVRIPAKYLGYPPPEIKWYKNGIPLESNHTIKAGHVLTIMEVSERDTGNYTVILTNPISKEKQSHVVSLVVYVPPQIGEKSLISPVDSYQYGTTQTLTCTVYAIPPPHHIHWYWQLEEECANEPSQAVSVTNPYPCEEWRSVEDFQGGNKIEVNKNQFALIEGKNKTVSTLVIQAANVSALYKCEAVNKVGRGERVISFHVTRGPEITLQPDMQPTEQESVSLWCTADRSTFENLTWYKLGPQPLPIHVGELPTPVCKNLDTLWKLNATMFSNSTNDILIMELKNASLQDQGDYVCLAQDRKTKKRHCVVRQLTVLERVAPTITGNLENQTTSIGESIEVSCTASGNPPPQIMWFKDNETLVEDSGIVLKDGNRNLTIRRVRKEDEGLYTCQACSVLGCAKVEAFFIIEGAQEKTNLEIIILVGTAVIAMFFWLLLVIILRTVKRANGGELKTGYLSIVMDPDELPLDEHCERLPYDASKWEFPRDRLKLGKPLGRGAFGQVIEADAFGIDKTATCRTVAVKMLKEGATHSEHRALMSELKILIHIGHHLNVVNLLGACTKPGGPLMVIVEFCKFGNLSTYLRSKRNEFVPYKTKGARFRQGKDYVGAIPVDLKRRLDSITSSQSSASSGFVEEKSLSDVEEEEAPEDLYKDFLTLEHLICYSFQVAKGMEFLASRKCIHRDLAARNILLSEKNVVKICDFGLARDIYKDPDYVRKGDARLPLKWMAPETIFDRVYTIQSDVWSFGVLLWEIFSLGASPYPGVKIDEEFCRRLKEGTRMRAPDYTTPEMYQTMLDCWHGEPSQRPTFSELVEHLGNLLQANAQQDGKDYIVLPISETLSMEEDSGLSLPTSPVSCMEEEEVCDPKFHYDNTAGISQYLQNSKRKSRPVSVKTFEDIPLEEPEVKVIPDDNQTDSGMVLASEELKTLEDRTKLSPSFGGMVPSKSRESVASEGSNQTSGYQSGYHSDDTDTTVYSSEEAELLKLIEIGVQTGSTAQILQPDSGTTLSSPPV

SMILES | BAF3-FGFR4 pIC50 [1] | IC50 [2, 5] | BAF3-FGFR1 (MIN IL3) pIC50 [3] | IC50 (KDR (h)) | IC50 (FGFR1 (h)) | IC50 [4, 5] | IC50 (FGFR2 (h)) | IC50 [2] | IC50 [4]
COc1ccc(Cl)c(/N=c2\ccc3ncc(-c4cnn(C)c4)nc3n2CC2CCC(=O)N2)c1Cl (single isomer, unassigned) [Compound 89] | <5 | > 10 µM | 5.18 | 339 nM | 93.3 nM | > 10 µM | 70.8 nM | – | –
COc1cc(OC)c(F)c(N(CC2COC(=O)N2)c2ccc3ncc(-c4cnn(C)c4)nc3n2)c1 (single isomer, unassigned) [Compound 111] | 7.27 | > 10 µM | 7.79 | 30.9 nM | 1.15 nM | > 10 µM | 2 nM | – | –
COc1cc(/N=c2\ccc3ncc(-c4cnn(C)c4)nc3n2CC2COC(=O)N2)c(F)c(OC)c1 (single isomer, unassigned) [Compound 112] | 6.67 | > 10 µM | 7.23 | 17 nM | 1.26 nM | > 10 µM | 1.66 nM | – | –
CNCCN(c1ccc2ncc(-c3cnn(C)c3)nc2n1)c1c(F)c(OC)cc(OC)c1F [Compound 3] | 7.37 | > 10 µM | 8.38 | 21.9 nM | 1.35 nM | > 10 µM | 3.09 nM | – | –
COc1cc(OC)c(F)c(N(CCNC(C)C)c2ccc3ncc(-c4cnn(C)c4)nc3n2)c1F [Compound 5] | ~8.21 | > 10 µM | 8.7 | 79.4 nM | 1.58 nM | > 10 µM | 3.98 nM | – | –
COCC(O)CN(c1cc(OC)cc(OC)c1)c1ccc2ncc(-c3cnn(C)c3)nc2n1 (stereo not shown) [Compound 7] | 6.53 | > 10 µM | 7.0 | 200 nM | 3.16 nM | > 10 µM | 3.98 nM | – | –
COc1cc(OC)c(F)c(N(Cc2ncccn2)c2ccc3ncc(-c4cnn(C)c4)nc3n2)c1 [Compound 9] | 6.79 | – | 7.4 | 50.1 nM | 5.62 nM | – | 12.6 nM | > 10 µM | > 10 µM
COc1cc(OC)c(F)c(N(Cc2cnccn2)c2ccc3ncc(-c4cnn(C)c4)nc3n2)c1F [Compound 10] | 7.57 | > 10 µM | 8.1 | 31.6 nM | 15.8 nM | > 10 µM | 35.5 nM | – | –
COc1cc(OC)c(F)c(N(CCO)c2ccc3ncc(-c4cnn(C)c4)nc3n2)c1F [Compound 20] | 7.63 | > 10 µM | 8.35 | 316 nM | 25.1 nM | > 10 µM | 126 nM | – | –
COc1cc(OC)c(F)c(N(Cc2ncc[nH]2)c2ccc3ncc(-c4cnn(C)c4)nc3n2)c1 [Compound 23] | 8.02 | > 10 µM | 8.85 | 7.08 nM | 0.741 nM | > 10 µM | 1.45 nM | – | –
COc1cc(OC)cc(N(Cc2ncc[nH]2)c2ccc3ncc(-c4cnn(C)c4)nc3n2)c1 [Compound 24] | 7.77 | > 10 µM | 8.46 | 10.7 nM | 0.55 nM | > 10 µM | 1.12 nM | – | –
COc1cc(OC)cc(N(CC#Cc2ncccc2OC)c2ccc3ncc(-c4cnn(C)c4)nc3n2)c1 [Compound 26] | <5 | > 10 µM | 6.8 | 501 nM | 50.1 nM | > 10 µM | 63.1 nM | – | –
Cn1cc(-c2cnc3ccc(N(Cc4ncc[nH]4)c4cc(F)cc(F)c4)nc3n2)cn1 [Compound 27] | 6.09 | > 10 µM | 6.14 | 501 nM | 19.1 nM | > 10 µM | 6.61 nM | – | –
COc1cc(OC)c(F)c(N(Cc2cn(S(=O)(=O)N(C)C)cn2)c2ccc3ncc(-c4cnn(C)c4)nc3n2)c1 [Compound 36] | 7.30 | > 10 µM | 7.72 | 27.5 nM | 1.55 nM | > 10 µM | 3.98 nM | – | –
COc1cc(/N=c2\ccc3ncc(-c4cnn(C)c4)nc3n2CCNC(C)C)c(F)c(OC)c1 [Compound 37] | 6.78 | > 10 µM | 7.78 | 45.7 nM | 1.62 nM | > 10 µM | 4.47 nM | – | –
CNCCn1/c(=N/c2cc(OC)cc(OC)c2F)ccc2ncc(-c3cnn(C)c3)nc21 [Compound 38] | 5.74 | > 10 µM | 6.92 | 74.1 nM | 2.45 nM | > 10 µM | 4.57 nM | – | –
CNCCN(c1ccc2ncc(-c3cnn(C)c3)nc2n1)c1cc(OC)cc(OC)c1F [Compound 39] | 6.73 | – | 7.97 | 46.8 nM | 2.19 nM | – | 5.37 nM | > 10 µM | > 10 µM
COc1cc(OC)c(F)c(N(CCO)c2ccc3ncc(-c4cnn(C)c4)nc3n2)c1 [Compound 40] | 7.04 | > 10 µM | 7.80 | 17.4 nM | 0.724 nM | > 10 µM | 1.48 nM | – | –
COc1cc(OC)c(F)c(N(Cc2c[nH]cn2)c2ccc3ncc(-c4cnn(C)c4)nc3n2)c1 [Compound 41] | 7.47 | > 10 µM | 7.99 | 5.37 nM | 0.363 nM | > 10 µM | 1.32 nM | – | –
